Measured values as given in PubChem BioAssay (NCI).
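Five concentrations, 48 hours, 96-well plates. The concentration for 50% growth inhibition is given as GI50. TGI marks complete inhibition of growth.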

Assays:
Assay in all cases: NCI-60 cell line screen, 48 h
DMS 273 small cell lung = test system: DMS 273 small cell lung
SW-620 colon = test system: SW-620 colon
HCT-15 colon = test system: HCT-15 colon
HL-60(TB) leukemia = test system: HL-60(TB) leukemia
IGROV1 ovarian = test system: IGROV1 ovarian
CCRF-CEM leukemia = test system: CCRF-CEM leukemia
OVCAR-5 ovarian = test system: OVCAR-5 ovarian
NCI-H460 lung = test system: NCI-H460 lung
NCI-H522 lung = test system: NCI-H522 lung
RPMI-8226 leukemia = test system: RPMI-8226 leukemia
NCI-H23 lung = test system: NCI-H23 lung
OVCAR-8 ovarian = test system: OVCAR-8 ovarian
SF-539 CNS = test system: SF-539 CNS
DLD-1 colon = test system: DLD-1 colon
EKVX NSCLC = test system: EKVX NSCLC
MALME-3M melanoma = test system: MALME-3M melanoma
HCT-116 colon = test system: HCT-116 colon
SNB-78 CNS = test system: SNB-78 CNS
SK-OV-3 ovarian = test system: SK-OV-3 ovarian
OVCAR-4 ovarian = test system: OVCAR-4 ovarian
UACC-257 melanoma = test system: UACC-257 melanoma
K-562 leukemia = test system: K-562 leukemia
M14 melanoma = test system: M14 melanoma
NCI-H226 lung = test system: NCI-H226 lung
U251 CNS = test system: U251 CNS
CAKI-1 renal = test system: CAKI-1 renal
UO-31 renal = test system: UO-31 renal
786-0 renal = test system: 786-0 renal
ACHN renal = test system: ACHN renal
SK-MEL-28 melanoma = test system: SK-MEL-28 melanoma
HT29 colon = test system: HT29 colon
SNB-75 CNS = test system: SNB-75 CNS
LOX IMVI melanoma = test system: LOX IMVI melanoma
SK-MEL-2 melanoma = test system: SK-MEL-2 melanoma
OVCAR-3 ovarian = test system: OVCAR-3 ovarian
HOP-62 NSCLC = test system: HOP-62 NSCLC
SNB-19 CNS = test system: SNB-19 CNS
SN12C renal = test system: SN12C renal
RXF 393 renal = test system: RXF 393 renal
TK-10 renal = test system: TK-10 renal
SF-295 CNS = test system: SF-295 CNS
SF-268 CNS = test system: SF-268 CNS
COLO 205 colon = test system: COLO 205 colon
LXFL 529 NSCLC = test system: LXFL 529 NSCLC
A549 NSCLC = test system: A549 NSCLC
SR leukemia = test system: SR leukemia
HCC-2998 colon = test system: HCC-2998 colon
SK-MEL-5 melanoma = test system: SK-MEL-5 melanoma
A498 renal = test system: A498 renal
HOP-18 NSCLC = test system: HOP-18 NSCLC
MOLT-4 leukemia = test system: MOLT-4 leukemia
KM12 colon = test system: KM12 colon

Structure (SMILES): N.N.NCCCCCCN.O=C([O-])CCl.O=C([O-])CCl.O=C([O-])CCl.O=C([O-])CCl.[Pt+4].[Pt+4]
- GI50 (DMS 273 small cell lung): > 50 µM
- TGI (DMS 273 small cell lung): > 50 µM
- GI50 (SW-620 colon): > 50 µM
- TGI (SW-620 colon): > 50 µM
- GI50 (HCT-15 colon): > 50 µM
- TGI (HCT-15 colon): > 50 µM
- GI50 (HL-60(TB) leukemia): 15.5 µM
- TGI (HL-60(TB) leukemia): > 50 µM
- GI50 (IGROV1 ovarian): > 50 µM
- TGI (IGROV1 ovarian): > 50 µM
- GI50 (CCRF-CEM leukemia): 2.73 µM
- TGI (CCRF-CEM leukemia): > 50 µM
- GI50 (OVCAR-5 ovarian): > 50 µM
- TGI (OVCAR-5 ovarian): > 50 µM
- GI50 (NCI-H460 lung): 3.11 µM
- TGI (NCI-H460 lung): > 50 µM
- GI50 (NCI-H522 lung): 10.9 µM
- TGI (NCI-H522 lung): > 50 µM
- GI50 (RPMI-8226 leukemia): > 50 µM
- TGI (RPMI-8226 leukemia): > 50 µM
- GI50 (NCI-H23 lung): 27.1 µM
- TGI (NCI-H23 lung): > 50 µM
- GI50 (OVCAR-8 ovarian): > 50 µM
- TGI (OVCAR-8 ovarian): > 50 µM
- GI50 (SF-539 CNS): 45.2 µM
- TGI (SF-539 CNS): > 50 µM
- GI50 (DLD-1 colon): > 50 µM
- TGI (DLD-1 colon): > 50 µM
- GI50 (EKVX NSCLC): > 50 µM
- TGI (EKVX NSCLC): > 50 µM
- GI50 (MALME-3M melanoma): > 50 µM
- TGI (MALME-3M melanoma): > 50 µM
- GI50 (HCT-116 colon): > 50 µM
- TGI (HCT-116 colon): > 50 µM
- GI50 (SNB-78 CNS): > 50 µM
- TGI (SNB-78 CNS): > 50 µM
- GI50 (SK-OV-3 ovarian): > 50 µM
- TGI (SK-OV-3 ovarian): > 50 µM
- GI50 (OVCAR-4 ovarian): > 50 µM
- TGI (OVCAR-4 ovarian): > 50 µM
- GI50 (UACC-257 melanoma): > 50 µM
- TGI (UACC-257 melanoma): > 50 µM
- GI50 (K-562 leukemia): > 50 µM
- TGI (K-562 leukemia): > 50 µM
- GI50 (M14 melanoma): > 50 µM
- TGI (M14 melanoma): > 50 µM
- GI50 (NCI-H226 lung): 17 µM
- TGI (NCI-H226 lung): > 50 µM
- GI50 (U251 CNS): 25.2 µM
- TGI (U251 CNS): > 50 µM
- GI50 (CAKI-1 renal): 24.7 µM
- TGI (CAKI-1 renal): > 50 µM
- GI50 (UO-31 renal): > 50 µM
- TGI (UO-31 renal): > 50 µM
- GI50 (786-0 renal): > 50 µM
- TGI (786-0 renal): > 50 µM
- GI50 (ACHN renal): 35.9 µM
- TGI (ACHN renal): > 50 µM
- GI50 (SK-MEL-28 melanoma): > 50 µM
- TGI (SK-MEL-28 melanoma): > 50 µM
- GI50 (HT29 colon): 37.1 µM
- TGI (HT29 colon): > 50 µM
- GI50 (SNB-75 CNS): 8.34 µM
- TGI (SNB-75 CNS): > 50 µM
- GI50 (LOX IMVI melanoma): > 50 µM
- TGI (LOX IMVI melanoma): > 50 µM
- GI50 (SK-MEL-2 melanoma): > 50 µM
- TGI (SK-MEL-2 melanoma): > 50 µM
- GI50 (OVCAR-3 ovarian): > 50 µM
- TGI (OVCAR-3 ovarian): > 50 µM
- GI50 (HOP-62 NSCLC): 6.04 µM
- TGI (HOP-62 NSCLC): > 50 µM
- GI50 (SNB-19 CNS): 27.8 µM
- TGI (SNB-19 CNS): > 50 µM
- GI50 (SN12C renal): 3.74 µM
- TGI (SN12C renal): > 50 µM
- GI50 (RXF 393 renal): 13.1 µM
- TGI (RXF 393 renal): > 50 µM
- GI50 (TK-10 renal): > 50 µM
- TGI (TK-10 renal): > 50 µM
- GI50 (SF-295 CNS): > 50 µM
- TGI (SF-295 CNS): > 50 µM
- GI50 (SF-268 CNS): 18.8 µM
- TGI (SF-268 CNS): > 50 µM
- GI50 (COLO 205 colon): 9.54 µM
- TGI (COLO 205 colon): > 50 µM
- GI50 (LXFL 529 NSCLC): > 50 µM
- TGI (LXFL 529 NSCLC): > 50 µM
- GI50 (A549 NSCLC): > 50 µM
- TGI (A549 NSCLC): > 50 µM
- GI50 (SR leukemia): 8.23 µM
- TGI (SR leukemia): > 50 µM
- GI50 (HCC-2998 colon): > 50 µM
- TGI (HCC-2998 colon): > 50 µM
- GI50 (SK-MEL-5 melanoma): > 50 µM
- TGI (SK-MEL-5 melanoma): > 50 µM
- GI50 (A498 renal): > 50 µM
- TGI (A498 renal): > 50 µM
- GI50 (HOP-18 NSCLC): > 50 µM
- TGI (HOP-18 NSCLC): > 50 µM
- GI50 (MOLT-4 leukemia): 1.73 µM
- TGI (MOLT-4 leukemia): > 50 µM
- GI50 (KM12 colon): > 50 µM
- TGI (KM12 colon): > 50 µM
